In assay [1] the test system is SARS CoV-2 infected Caco2 cells. Format: cell-based.
For another assay, the system named is IL-6, IL-1β, and TNFα. Format: cell-based.
The test system of assay [2] is GFP-CoV-2 infected mature adipocytes. Format: cell-based, SARS CoV-2. The settings on record: for reduction in infection by cytoimmunochemical staining (SARS CoV-2/ACE2): mature adipocytes, FIG. 3C.
Another assay has as its system CoV-2 infection. The assay is classed as in vivo, human. The settings on record: obese Type 2 diabetic patient, oral, retested twice over several weeks.
The subject of assay [3] is serum inflammatory markers and anti-inflammatory cytokines. The settings on record: Type 2 diabetic patients; cited from earlier work.

Like-named read-outs stand apart in the source and are kept apart here.

On to `CN(C)C(=N)N=C(N)N` [metformin], for which, in assay [1], the “expression of SARS CoV-2 N protein (fold change)” value is on record as “decreasing expression” and the “expression of SARS CoV-2 S protein (fold change)” value is on record as “decreasing expression”. For the same compound, in the assay with IL-6, IL-1β, and TNFα, the “expression of IL-1β (fold change)” value is “decreasing expression”, the “expression of IL-6 (fold change)” value was “decreasing expression” and the “expression of TNFα (fold change)” value was “decreasing expression”. In assay [2], the “inhibition of viral infection (integrated density of GFP expression)” value is reported as “inhibited viral infection” and the “reduction in infection by cytoimmunochemical staining (SARS CoV-2/ACE2)” value is given as “reduction in infection”.
As to `N[C@@H](CC(=O)N1CCn2c(nnc2C(F)(F)F)C1)Cc1cc(F)c(F)cc1F` [sitagliptin], in assay [1], the “expression of SARS CoV-2 N protein (fold change)” value is given as “larger decrease than metformin” and the “expression of SARS CoV-2 S protein (fold change)” value is “larger decrease than metformin”. Further, in the assay on IL-6, IL-1β, and TNFα, the “expression of IL-1β (fold change)” value is “decreasing expression”, the “expression of IL-6 (fold change)” value is on record as “decreasing expression” and the “expression of TNFα (fold change)” value was “decreasing expression”. In addition, the “inhibition of viral infection (integrated density of GFP expression)” value in assay [2] ([…], metformin 10 mM, sitagliptin 20 uM) is “highest reduction”. The “reduction in infection by cytoimmunochemical staining (SARS CoV-2/ACE2)” value in assay [2] is recorded as “highest reduction”. In the assay with CoV-2 infection, the “virus test after treatment” value is “tests negative for the virus”. Also, in assay [3], the anti-inflammatory cytokines entry was “increased” and the “serum levels of inflammatory markers” value is reported as “significantly decreased”.

These data come from patent publication US12642799B2, “Composition and method for treating COVID-19” (University of South Florida, priority 2021, dated 2026).
